# Test results reported in patent publication US9963433B2, “Anticancer drugs including the chemical structures of an androgen receptor ligand and a histone deacetylase inhibitor” (Wayne State University, priority 2016, dated 2018).
# Legend:
# [1] = test system: p21 mRNA in C4-2 cells; assay: p21 mRNA induction in C4-2 cells; conditions: 48 h, FIG. 5B
# [2] = test system: DLC1 mRNA in LNCaP cells; assay: In situ HDACi activity: DLC1 mRNA in LNCaP cells; assay type: cell-based; conditions: 10 μM, 48 h, normalized to GAPDH mRNA, FIG. 2E
# Method: FIGS. 2A-2F show measurement of intrinsic and in situ HDACi activities. […]. IC50 values were calculated from nonlinear regression plots using GraphPad Prism5 software. (2B) Enz, 1002 and 3-52 were tested against HeLa cell nuclear extract at 10 μM and 25 μM and TSA (1 μM) was used as positive control. […] Recombinant HDAC6 was incubated with each drug at the indicated concentrations. IC50 values were calculated from nonlinear regression plots using GraphPad Prism5 software. (2D) Enz, 1002 and 3-52 were tested against recombinant HDAC6 at 10 μM and 25 μM and TSA (1 μM) was used as positive control. […]
# Cell Culture and Reagents. LNCaP and 22Rv1 cell lines were from American Type Culture Collection (Manassas, Va.). C4-2 cells were kindly provided by Dr. Edwin Sanchez (University of Toledo). LNCaP and C4-2 cells were routinely grown at 37° C. in 5% CO2 in RPMI 1640 medium supplemented with 10% FBS (Invitrogen); 100 units/ml penicillin, 100 μg/ml streptomycin, 2 mM L-glutamine mixture (Invitrogen); and sodium pyruvate (1 mM) (Invitrogen). 22Rv1 cells were grown in RPMI 1640 medium supplemented with 10% FBS (Invitrogen); 100 units/ml penicillin, 100 μg/ml streptomycin, 2 mM L-glutamine mixture (Invitrogen). Affinity-purified rabbit anti-human antibody to AR (sc-816) and mouse anti-human antibody to GAPDH (sc-47724) were purchased from Santa Cruz Biotechnology (Santa Cruz, Calif.). Affinity-purified rabbit anti-human antibody to Hsp90 (C45G5) #4877 and rabbit anti-human antibody to acetylated lysine #9441 were purchased from Cell Signaling Technology. R1881 was kindly provided by Dr. Stephan Patrick (Karmanos Cancer Institute). All experiments were conducted using phenol-red free growth media. For hormone depletion, cells were grown in phenol-red free RPMI 1640 medium supplemented with 10% charcoal stripped FBS (Sigma-Aldrich) which was heat inactivated at 56° C. for thirty minutes, and a mixture of 100 units/ml penicillin, 100 μg/ml streptomycin and 2 mM L-glutamine for 96 h.
# RNA isolation, Reverse Transcription, and Real Time PCR. Total RNA was isolated from cells using the RNeasy Mini Kit (Qiagen). Reverse transcription PCR was then performed using 500 ng of total RNA with random primers and using the high-capacity complementary DNA Archive kit (Applied Biosystems). The complementary DNA from this reaction was measured using quantitative real time PCR using the StepONE Plus Real Time PCR system (Life Technologies Corporation, Carlsbad, Calif.). All reactions were performed in triplicate and normalized to glyceraldehyde-3-phosphate-dehydrogenase values in the same samples. All primers and Taqman probes were purchased from the applied Biosystems inventory (Invitrogen) (Patki et al., 2015).
# . […]
# [3] = target: T1, human recombinant HDAC6 (Homo sapiens, UniProt Q9UBN7); assay: HDAC6 fluorometric assay, recombinant enzyme; assay type: biochemical; conditions: for IC50: cell-free, FIG. 2C, read-out: IC50, inhibition of recombinant HDAC6
# T1 construct: purchased Enzo Life Sciences BML-AK516
# T1 sequence (Q9UBN7 1-1215): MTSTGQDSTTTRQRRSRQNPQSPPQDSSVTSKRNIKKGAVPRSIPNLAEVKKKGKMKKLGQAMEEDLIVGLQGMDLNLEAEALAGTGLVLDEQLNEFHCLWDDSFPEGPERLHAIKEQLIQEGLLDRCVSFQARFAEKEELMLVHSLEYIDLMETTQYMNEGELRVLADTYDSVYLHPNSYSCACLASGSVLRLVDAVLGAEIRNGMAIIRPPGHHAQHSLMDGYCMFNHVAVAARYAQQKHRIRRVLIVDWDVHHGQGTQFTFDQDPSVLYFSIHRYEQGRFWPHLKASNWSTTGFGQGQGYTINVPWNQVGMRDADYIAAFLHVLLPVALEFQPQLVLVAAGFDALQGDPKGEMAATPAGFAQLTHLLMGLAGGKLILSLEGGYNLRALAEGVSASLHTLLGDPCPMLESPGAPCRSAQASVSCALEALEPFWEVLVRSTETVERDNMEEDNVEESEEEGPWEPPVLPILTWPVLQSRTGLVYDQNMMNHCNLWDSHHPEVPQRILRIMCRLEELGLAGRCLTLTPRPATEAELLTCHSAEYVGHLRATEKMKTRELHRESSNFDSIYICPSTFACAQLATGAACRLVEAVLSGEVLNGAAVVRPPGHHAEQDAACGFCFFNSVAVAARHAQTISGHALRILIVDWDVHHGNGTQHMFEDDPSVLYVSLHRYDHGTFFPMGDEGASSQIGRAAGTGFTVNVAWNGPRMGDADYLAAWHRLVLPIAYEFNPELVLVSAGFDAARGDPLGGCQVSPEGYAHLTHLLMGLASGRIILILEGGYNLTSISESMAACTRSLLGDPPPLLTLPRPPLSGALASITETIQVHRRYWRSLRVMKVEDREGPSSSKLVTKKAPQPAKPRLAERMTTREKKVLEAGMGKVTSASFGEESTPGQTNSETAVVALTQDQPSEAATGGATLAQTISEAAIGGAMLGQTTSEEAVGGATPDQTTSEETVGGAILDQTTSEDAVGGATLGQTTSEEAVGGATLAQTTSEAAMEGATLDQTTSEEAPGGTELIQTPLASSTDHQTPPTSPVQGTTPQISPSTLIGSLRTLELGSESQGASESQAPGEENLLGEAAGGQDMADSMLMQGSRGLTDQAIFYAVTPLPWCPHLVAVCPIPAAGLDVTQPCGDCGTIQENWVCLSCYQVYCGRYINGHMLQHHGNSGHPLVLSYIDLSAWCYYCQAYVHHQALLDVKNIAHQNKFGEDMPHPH
# Method: FIGS. 2A-2F show measurement of intrinsic and in situ HDACi activities. […] IC50 values were calculated from nonlinear regression plots using GraphPad Prism5 software. […] Recombinant HDAC6 was incubated with each drug at the indicated concentrations. IC50 values were calculated from nonlinear regression plots using GraphPad Prism5 software.
# HDAC activity assay. In vitro HDAC inhibition was measured by using the HDAC fluorimetric assay/drug discovery Kit (Enzo Life Sciences, BML-AK500) and the HDAC6 fluorometric drug discovery kit (Enzo Life Sciences, BML-AK516) following the manufacturer's protocols and instructions. IC50 values were calculated from nonlinear […] plots using GraphPad Prism5 software.
# HDAC1 and HDAC2 are enriched in nuclear extracts whereas HDAC6 is a cytosolic enzyme that is the principal modulator of the acetylation status of Hsp90. […] Again, TSA served as the positive control in FIG. 2D.
Compound,p21 mRNA expression [1],DLC1 mRNA expression [2],IC50 [3],"inhibitory activity against HDAC6 ([3]; tested at 10 μM and 25 μM, FIG. 2D)"
"CC1(C)C(=O)N(c2ccc(C#N)c(C(F)(F)F)c2)C(=S)N1c1ccc(C(=O)NCCCCCCC(=O)NO)c(F)c1 [Compound 2-75, 4-(3-(4-cyano-3-(trifluoromethyl)phenyl)-5,5-dimethyl-4-oxo-2-thioxoimidazolidin-1-yl)-2-fluoro-N-(7-(hydroxyamino)-7-oxoheptyl)benzamide]",induced p21 to a greater extent than SAHA,poor inducers of DLC1 mRNA compared with SAHA,2 µM,
"CC1(C)C(=O)N(c2ccc(C#N)c(C(F)(F)F)c2)C(=S)N1c1ccc(/C=C/C(=O)NO)c(F)c1 [Compound 1005, (E)-3-(4-(3-(4-cyano-3-(trifluoromethyl)phenyl)-5,5-dimethyl-4-oxo-2-thioxoimidazolidin-1-yl)-2-fluorophenyl)-N-hydroxyacrylamide]",induced p21 to a greater extent than SAHA,poor inducers of DLC1 mRNA compared with SAHA,6.93 µM,
"CNC(=O)c1ccc(N2C(=S)N(c3ccc(C#N)c(C(F)(F)F)c3)C(=O)C2(C)C)cc1F [Enz, Enzalutamide, reference compound]",had no effect,had no effect,,did not show significant inhibitory activity
